From patent US9174980B2, “Heterocyclic compounds as inhibitors of leukotriene production” (Boehringer Ingelheim International GmbH, priority 2012, dated 2015)

How the values were obtained:
[1] = system: synthesis of LTB4 in human whole blood; assay: Human whole blood assay (calcimycin-stimulated LTB4 synthesis); assay type: cell-based; conditions: Homo sapiens; read-out: Human Whole Blood LTB4 Assay for FLAP (IC50 nM)
Procedure, shortened: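 Whole-blood cellular format, heparinized human donors: 15 min compound pretreatment, then 30 min calcimycin stimulation (20 μM final), both at 37° C. Low-speed centrifugation yields plasma, in which LTB4 is read by homogeneous time-resolved fluorescence immunoassay.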

[2] = biological target: T1, recombinant human FLAP protein (Homo sapiens, UniProt P20292); assay: FLAP binding assay (Scintillation Proximity Assay, displacement of [125I]L-691,831); conditions: read-out: Human FLAP SPA Binding (IC50 nM)
T1 construct: made in house; host or cells: Sf9 insect cells (membrane fraction, 100,000 x g pellet)
T1 sequence (P20292 1-161): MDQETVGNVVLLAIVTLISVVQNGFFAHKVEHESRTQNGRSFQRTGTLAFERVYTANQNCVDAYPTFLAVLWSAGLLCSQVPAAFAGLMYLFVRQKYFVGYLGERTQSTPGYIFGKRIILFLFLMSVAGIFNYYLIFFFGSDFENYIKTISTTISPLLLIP
Procedure, shortened: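 Scintillation proximity displacement format: 0.08 nM iodinated MK-591 analog [125I]L-691,831 competes with test compound for human FLAP in sf9 insect-cell membranes (5 μg/well, WGA beads), 2 h with shaking, pH 7.5 Tris buffer. 10 μM cold L-691,831 defines non-specific binding.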

Row | IC50 [1] [nM] | IC50 [2] [nM] | SMILES
1 | 2600 | 16 | Cc1ccc(-c2csc(C3(c4ccc(-c5cnc(N)nc5)cc4)CCC3)n2)cn1 [Example 157, 5-(4-{1-[4-(6-methylpyridin-3-yl)-1,3-thiazol-2-yl]cyclobutyl}phenyl)pyrimidin-2-amine]
2 | 430 | 5.2 | Cc1ccc(-c2cc(C3(c4ccc(-c5cnc(N)nc5)cc4)CCC3)no2)cn1 [Example 158, 5-(4-{1-[5-(6-methylpyridin-3-yl)-1,2-oxazol-3-yl]cyclobutyl}phenyl)pyrimidin-2-amine]
3 | 1500 | 210 | COC(=O)c1c[nH]cc1C1(c2ccc(-c3cnc(N)nc3)cc2)CCC1 [Example 162, methyl 4-[1-[4-(2-aminopyrimidin-5-yl)phenyl]cyclobutyl]-1H-pyrrole-3-carboxylate]
4 | 93 | 3.7 | Cn1cc(-c2coc(C3(c4ccc(-c5cnc(N)nc5)cc4)CCC3)n2)cn1 [Example 164, 5-(4-{1-[4-(1-methyl-1H-pyrazol-4-yl)-1,3-oxazol-2-yl]cyclobutyl}phenyl)pyrimidin-2-amine]
5 | 140 | 7.4 | Cn1cc(-c2coc(C(C)(c3ccc(-c4cnc(N)nc4)cc3)C3CC3)n2)cn1 (stereo not shown) [Example 171, 5-(4-{1-cyclopropyl-1-[4-(1-methyl-1H-pyrazol-4-yl)-1,3-oxazol-2-yl]ethyl}phenyl)pyrimidin-2-amine]
6 | 2900 | 150 | COC(=O)c1cc(-c2cnn(C)c2)c(C2(c3ccc(-c4cnc(N)nc4)cc3)CCC2)[nH]1 [Example 176, methyl 5-{1-[4-(2-aminopyrimidin-5-yl)phenyl]cyclobutyl}-4-(1-methyl-1H-pyrazol-4-yl)-1H-pyrrole-2-carboxylate]
7 | 81 | 2.9 | Nc1ncc(-c2ccc(C3(c4ncc(-c5cn[nH]c5)s4)CCC3)cc2)cn1 [Example 178, 5-(4-{1-[5-(1H-pyrazol-4-yl)-1,3-thiazol-2-yl]cyclobutyl}phenyl)pyrimidin-2-amine]
8 | 270 | 8.9 | CN(C)C(=O)Cn1cc(-c2cnc(C3(c4ccc(-c5cnc(N)nc5)cc4)CCC3)s2)cn1 [Example 180, 2-[4-(2-{1-[4-(2-aminopyrimidin-5-yl)phenyl]cyclobutyl}-1,3-thiazol-5-yl)-1H-pyrazol-1-yl]-N,N-dimethylacetamide]
9 | 110 | 6.1 | CN(C)CCn1cc(-c2cnc(C3(c4ccc(-c5cnc(N)nc5)cc4)CCC3)s2)cn1 [Example 181, 5-{4-[1-(5-{1-[2-(dimethylamino)ethyl]-1H-pyrazol-4-yl}-1,3-thiazol-2-yl)cyclobutyl]phenyl}pyrimidin-2-amine]
10 | 1400 | 38 | COC(=O)c1cc(-c2cnn(C)c2)c(C2(c3ccc(-c4cnc(N)nc4)cc3)CCC2)n1C [Example 182, methyl 5-{1-[4-(2-aminopyrimidin-5-yl)phenyl]cyclobutyl}-1-methyl-4-(1-methyl-1H-pyrazol-4-yl)-1H-pyrrole-2-carboxylate]
11 | 54 | 3.3 | Cn1cc(-c2coc([C@@](C)(c3ccc(-c4cnc(N)nc4)cc3)C3CC3)n2)cn1 [Example 185, 5-[4-[(1R)-1-cyclopropyl-1-[4-(1-methylpyrazol-4-yl)oxazol-2-yl]ethyl]phenyl]pyrimidin-2-amine]
12 | 2000 | 87 | Cn1cc(-c2coc([C@](C)(c3ccc(-c4cnc(N)nc4)cc3)C3CC3)n2)cn1 [Example 186, 5-[4-[(1S)-1-cyclopropyl-1-[4-(1-methylpyrazol-4-yl)oxazol-2-yl]ethyl]phenyl]pyrimidin-2-amine]

The remaining lines, values behind:

Row | SMILES | IC50 [1] [nM] | IC50 [2] [nM]
13 | Nc1ncc(-c2ccc(C3(c4c[nH]c5c(=O)[nH]ccc45)CCC3)cc2)cn1 [Example 155] | 370 | 2.5
14 | Cn1cc(C(c2ccc(-c3cnc(N)nc3)cn2)C(C)(C)C)c2ccccc21 (stereo not shown) [Example 156, 5-{6-[2,2-dimethyl-1-(1-methyl-1H-indol-3-yl)propyl]pyridin-3-yl}pyrimidin-2-amine] | > 5000 | 260
15 | COCCNC(=O)c1cccc2c(C3(c4ccc(-c5cnc(N)nc5)cc4)CCC3)c[nH]c12 [Example 159] | 43 | 1.9
16 | Cc1ccc(-c2cc(C(C)(c3ccc(-c4cnc(N)nc4)nc3)C(C)C)[nH]n2)cn1 (stereo not shown) [Example 160, 5-(5-{3-methyl-2-[5-(6-methylpyridin-3-yl)-1H-pyrazol-3-yl]butan-2-yl}pyridin-2-yl)pyrimidin-2-amine] | 1400 | 8.4
17 | CC(C)C(C)(c1ccc(-c2cnc(N)nc2)nc1)c1cc(-c2cnn(C)c2)on1 (stereo not shown) [Example 161, 5-(5-{3-methyl-2-[5-(1-methyl-1H-pyrazol-4-yl)-1,2-oxazol-3-yl]butan-2-yl}pyridin-2-yl)pyrimidin-2-amine] | 160 | 8.2
18 | Nc1ncc(-c2ccc(C3(c4c(-c5ccc(F)cc5)[nH]c5ccccc45)CCC3)cc2)cn1 [Example 163, 5-(4-{1-[2-(4-fluorophenyl)-1H-indol-3-yl]cyclobutyl}phenyl)pyrimidin-2-amine] | 590 | 5.7
19 | COC(=O)c1[nH]c2ccccc2c1C1(c2ccc(-c3cnc(N)nc3)cc2)CCC1 [Example 165, methyl 3-{1-[4-(2-aminopyrimidin-5-yl)phenyl]cyclobutyl}-1H-indole-2-carboxylate] | 160 | 6.1
20 | COC(=O)c1cc(-c2ccc(F)cc2)c(C2(c3ccc(-c4cnc(N)nc4)cc3)CCC2)[nH]1 [Example 166, methyl 5-{1-[4-(2-aminopyrimidin-5-yl)phenyl]cyclobutyl}-4-(4-fluorophenyl)-1H-pyrrole-2-carboxylate] | 3600 | 72
21 | COC(=O)c1ccc(C2(c3ccc(-c4cnc(N)nc4)cc3)CCC2)[nH]1 [Example 167, methyl 5-[1-[4-(2-aminopyrimidin-5-yl)phenyl]cyclobutyl]-1H-pyrrole-2-carboxylate] | 3200 | 59
22 | CC(C)C(C)(c1ccc(-c2cnc(N)nc2)nc1)c1nc(-c2cnn(C)c2)co1 (stereo not shown) [Example 168, 5-(5-{3-methyl-2-[4-(1-methyl-1H-pyrazol-4-yl)-1,3-oxazol-2-yl]butan-2-yl}pyridin-2-yl)pyrimidin-2-amine] | 390 | 87
23 | Nc1ncc(-c2ccc(C3(c4cccn4S(=O)(=O)c4ccccc4)CCC3)cc2)cn1 [Example 169, 5-(4-{1-[1-(phenylsulfonyl)-1H-pyrrol-2-yl]cyclobutyl}phenyl)pyrimidin-2-amine] | 2000 | 110
24 | CN(C)C(=O)Cn1cc(-c2cnc(C(C)(c3ccc(-c4cnc(N)nc4)cc3)C3CC3)s2)cn1 (stereo not shown) [Example 170, 2-[4-[2-[1-[4-(2-aminopyrimidin-5-yl)phenyl]-1-cyclopropyl-ethyl]thiazol-5-yl]pyrazol-1-yl]-N,N-dimethyl-acetamide] | 120 | 10
25 | CN(C)CCn1cc(-c2cnc(C(C)(c3ccc(-c4cnc(N)nc4)cc3)C3CC3)s2)cn1 (stereo not shown) [Example 172, 5-{4-[1-cyclopropyl-1-(5-{1-[2-(dimethylamino)ethyl]-1H-pyrazol-4-yl}-1,3-thiazol-2-yl)ethyl]phenyl}pyrimidin-2-amine] | 73 | 8.2
26 | Cn1cc(-c2cnc(C(C)(c3ccc(-c4cnc(N)nc4)cc3)C3CC3)s2)cn1 (stereo not shown) [Example 173, 5-(4-{1-cyclopropyl-1-[5-(1-methyl-1H-pyrazol-4-yl)-1,3-thiazol-2-yl]ethyl}phenyl)pyrimidin-2-amine] | 89 | 7.7
27 | COC(=O)c1[nH]cc(Br)c1C1(c2ccc(-c3cnc(N)nc3)cc2)CCC1 [Example 174, methyl 3-{1-[4-(2-aminopyrimidin-5-yl)phenyl]cyclobutyl}-4-bromo-1H-pyrrole-2-carboxylate] | 650 | 17
28 | CC(c1ccc(-c2cnc(N)nc2)cc1)(c1cc(O)n(-c2ccccc2)n1)C1CC1 (stereo not shown) [Example 175, 3-{1-[4-(2-aminopyrimidin-5-yl)phenyl]-1-cyclopropylethyl}-1-phenyl-1H-pyrazol-5-ol] | 1100 | 10
29 | COC(=O)c1cc(Br)c(C2(c3ccc(-c4cnc(N)nc4)cc3)CCC2)n1C [Example 177, methyl 5-{1-[4-(2-aminopyrimidin-5-yl)phenyl]cyclobutyl}-4-bromo-1-methyl-1H-pyrrole-2-carboxylate] | 1800 | 42
30 | COC(=O)c1cc(-c2ccc(F)nc2)c(C2(c3ccc(-c4cnc(N)nc4)cc3)CCC2)[nH]1 [Example 179, methyl 5-{1-[4-(2-aminopyrimidin-5-yl)phenyl]cyclobutyl}-4-(6-fluoropyridin-3-yl)-1H-pyrrole-2-carboxylate] | 4400 | 200
31 | CN(C)C(=O)Cn1cc(-c2cc(C(C)(c3ccc(-c4cnc(N)nc4)cc3)C3CC3)no2)cn1 (stereo not shown) [Example 183, 2-[4-(3-{1-[4-(2-aminopyrimidin-5-yl)phenyl]-1-cyclopropylethyl}-1,2-oxazol-5-yl)-1H-pyrazol-1-yl]-N,N-dimethylacetamide] | 200 | 9
32 | CC(C)(O)Cn1cc(-c2cc(C(C)(c3ccc(-c4cnc(N)nc4)cc3)C3CC3)no2)cn1 (stereo not shown) [Example 184, 1-[4-(3-{1-[4-(2-aminopyrimidin-5-yl)phenyl]-1-cyclopropylethyl}-1,2-oxazol-5-yl)-1H-pyrazol-1-yl]-2-methylpropan-2-ol] | 97 | 8.4
